Source: PMC4360945, “In silico discovery and validation of potent small-molecule inhibitors targeting the activation function 2 site of human oestrogen receptor α” (Breast Cancer Research : BCR, 2015)
Values joined by “and” are separate entries in the source; they are usually repeats but may differ in a detail not shown here. Equal values may be shown once. “Also recorded” adds a separate entry of the source. Values belong to the molecule of their own block, whether it stands above or below them.

Experiments:
[1] = biological target: T1, ERα AF2 site (GST-tagged ER-LBD) (Homo sapiens, UniProt P03372); assay: TR-FRET ERα coactivator (PGC-1α peptide) displacement assay; assay type: biochemical
T1 construct: glutathione S-transferase (GST)-tagged ER-LBD (7.25 nM); purchased Life Technologies PV4544
T1 sequence (P03372 311-547 limits assumed): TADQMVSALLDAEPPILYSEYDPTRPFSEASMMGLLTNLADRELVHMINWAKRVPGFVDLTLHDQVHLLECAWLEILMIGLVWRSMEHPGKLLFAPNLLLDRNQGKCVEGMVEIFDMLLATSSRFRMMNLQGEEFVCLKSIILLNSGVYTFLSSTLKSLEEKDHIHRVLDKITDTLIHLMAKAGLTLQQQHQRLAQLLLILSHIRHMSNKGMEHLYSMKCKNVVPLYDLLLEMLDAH

ERα LBD = biological target: T2, ERα LBD (Homo sapiens, UniProt P03372); assay: Bio-layer interferometry assay; assay type: binding; conditions: 3 to 100 μM
T2 construct: ERα LBD (peptides 302 to 552); made in house; host or cells: Escherichia coli BL21
T2 sequence (P03372 302-552): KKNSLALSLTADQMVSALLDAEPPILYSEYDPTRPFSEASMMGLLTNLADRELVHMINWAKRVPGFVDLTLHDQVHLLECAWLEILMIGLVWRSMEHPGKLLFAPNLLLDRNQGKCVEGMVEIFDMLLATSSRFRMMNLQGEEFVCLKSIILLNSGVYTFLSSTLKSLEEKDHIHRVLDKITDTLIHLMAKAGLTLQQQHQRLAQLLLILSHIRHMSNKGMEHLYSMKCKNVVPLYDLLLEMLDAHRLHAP
From the text: The direct reversible interaction between small molecules and the ER-α was quantified by BLI using an Octet RED apparatus (Pall ForteBio, Menlo Park, CA, USA). The LDB of the biotinylated oestrogen receptor-alpha (bERα) was produced in situ with AviTag technology (Avidity, Aurora, CO, USA). […] A six-residue histidine tag was incorporated at the C-terminus of the ERα LBD for purification of the protein. […] The bacteria were then lysed by sonication, and the resulting lysate was purified by immobilised metal ion affinity chromatography with nickel agarose beads and cation exchange chromatography (HiTrap SP; GE Healthcare Life Sciences, Pittsburgh, PA, USA). […] The compounds were dissolved in the assay buffer in a twofold dilution series ranging from 3.1 to 100 μM.
The ERα LBD was biotinylated on the AviTag by a biotin ligase expressed by the bacterial cells cotransformed with the biotin ligase plasmid pBirACm. The bERα LBD was purified by nickel-affinity chromatography and immobilised on streptavidin-coated biosensor tips. The interaction between small molecule and protein was measured in real time as a shift in the interference pattern of the incident light. A response profile was generated on the Octet RED system.

MCF7 cells = assay: MTS assay, MCF7; assay type: cell-based, human; conditions: MCF7, 96 h, 1 nM E2; read-out: IC50, growth inhibition
Description: (§1) Cells were seeded in 96-well plates at a density of 5 × 10^3 cells/well. MCF7, […]-MB-453 and HeLa cells were seeded in their respective media. […] After 96 hours, 30 μl of MTS reagent (CellTiter 96 AQueous One Solution Cell Proliferation Assay reagent; Promega) were added and incubated for 90 minutes at 37°C in 5% CO2. The production of formazan was measured at 490 nm.

TamR3 cells = assay: MTS assay, TamR3; assay type: cell-based, human
Description: as §1

TamR6 cells = assay: MTS assay, TamR6; assay type: cell-based, human
Description: as §1

[2] = test system: pS2, cathepsin D and CDC2 mRNA; assay: Quantitative RT-PCR of oestrogen-responsive genes in MCF7 cells; assay type: cell-based, human; conditions: MCF7, 24 h
Description: mRNA levels were analysed by quantitative RT-PCR (qRT-PCR). For this purpose, serum-starved MCF7 cells were seeded onto six-well plates at a density of 6 × 10^5 cells/well. […] RNA was isolated after 24 hours with TRIzol reagent (Life Technologies) and purified with the RNeasy Mini Kit (QIAGEN, Valencia, CA, USA). The purified mRNA was quantified using a NanoDrop spectrophotometer (NanoDrop, Wilmington, DE, USA). RNA (0.5 μg) was reverse-transcribed using the iScript synthesis kit (Bio-Rad Laboratories, Hercules, CA, USA). cDNA product (100 ng) was added to the primer mix. The final concentration of the primers was 5 pM. The sequences of the primers used in the qRT-PCR experiments were as follows: pS2, forward [NT] and reverse [NT]; cathepsin D, forward [NT] and reverse [NT]; CDC2, forward [NT] and reverse [NT]; glyceraldehyde 3-phosphate dehydrogenase (GAPDH), forward [NT] and reverse [NT]. The fold change in expression of the gene was calculated using the 2^-ΔΔCt method with GAPDH as the internal control.

[3] = test system: pS2, cathepsin D and CDC2 protein; assay: Western blotting of oestrogen-responsive gene products in MCF7 cells; assay type: cell-based, human; conditions: MCF7, 24 h, 1 nM E2; 12 and 6 μM
Description: MCF7 cells were serum-starved in phenol red–free RPMI 1640 containing 10% CSS for 5 days. […] After 24 hours, the medium was aspirated, and the cells were washed with ice-cold phosphate-buffered saline. Cells were lysed in 1× radioimmunoprecipitation assay buffer containing one tablet of cOmplete protease inhibitor cocktail (Roche Life Science, Indianapolis, IN, USA). Cell debris was pelleted by centrifugation at 15,000 g for 10 minutes at 4°C. The supernatants were collected and quantified using the BCA assay. In each case, 25 μg of protein was loaded onto 15% (v/v) SDS-PAGE gels, separated and transferred to polyvinylidene fluoride membrane. Membranes were incubated with pS2, cathepsin D and CDC2 antibodies or control α-actin antibody. Bound antibodies were detected using horseradish peroxidase–conjugated secondary antibodies. Chemiluminescence was detected with an Amersham ECL detection kit (GE Healthcare Life Sciences), and bands were visualised using the G:BOX imager (Syngene, Frederick, MD, USA).

[4] = biological target: T3, oestrogen receptor-alpha (ERα) (Homo sapiens, UniProt P03372); assay: Transiently transfected E2-responsive luciferase reporter in TamR3 cells; assay type: cell-based; design: endogenous in cells; conditions: TamR3, 1 nM E2; read-out: IC50, transcriptional inhibition of transiently transfected E2-responsive luciferase reporter
T3 sequence (P03372 1-595): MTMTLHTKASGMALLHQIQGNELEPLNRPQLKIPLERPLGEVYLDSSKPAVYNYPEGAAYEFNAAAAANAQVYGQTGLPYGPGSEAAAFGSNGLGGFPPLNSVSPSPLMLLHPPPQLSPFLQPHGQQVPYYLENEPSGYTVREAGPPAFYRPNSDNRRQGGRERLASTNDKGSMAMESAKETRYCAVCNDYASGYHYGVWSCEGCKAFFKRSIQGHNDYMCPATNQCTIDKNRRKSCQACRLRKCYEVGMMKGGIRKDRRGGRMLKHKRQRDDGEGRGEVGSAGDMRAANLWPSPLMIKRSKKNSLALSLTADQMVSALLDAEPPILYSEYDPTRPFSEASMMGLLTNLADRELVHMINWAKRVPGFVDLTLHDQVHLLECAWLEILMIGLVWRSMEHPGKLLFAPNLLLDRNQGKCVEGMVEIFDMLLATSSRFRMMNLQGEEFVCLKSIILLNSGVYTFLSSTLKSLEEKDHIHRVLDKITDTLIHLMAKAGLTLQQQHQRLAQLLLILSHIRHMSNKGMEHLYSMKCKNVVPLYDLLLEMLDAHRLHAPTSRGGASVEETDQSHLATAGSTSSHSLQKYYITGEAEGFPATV
Description: (§2) For transient transfection, we used pGL2.TATA.Inr.luc plasmid, which contains three copies of vitellogenin oestrogen response element (ERE) upstream of the TATA promoter (3X ERE TATA luc; Addgene plasmid 11354). This is the same plasmid used to construct pGL2.TATA.Inr.luc.neo, used to create the stable cell line T47D-KBluc.
(§3) TamR3 and TamR6 cells were grown in phenol red–free RPMI 1640 supplemented with 10% CSS and 1 μM tamoxifen. The cells were seeded on a 96-well plate (2 × 10^4 cells/well). After 24 hours, the cells were cotransfected with 50 ng each of the ERα-responsive luciferase plasmid and a constitutive Renilla reporter (to normalise for variations in transfection efficiency) using TransIT-2020 reagent (Mirus Bio, Madison, WI, USA). […] The compounds were added in a twofold dilution ranging from 0.1 to 50 μM. […] The medium contained 0.1% (v/v) ethanol and 0.1% (v/v) DMSO. Twenty-four hours after treatment, the medium was aspirated and the cells were lysed by adding 50 μl of 1× passive lysis buffer (Promega). Luciferase activities were assayed using the Dual-Luciferase Reporter Assay System (Promega).

[5] = biological target: T3, oestrogen receptor-alpha (ERα); assay: Transiently transfected E2-responsive luciferase reporter in TamR6 cells; assay type: cell-based; design: endogenous in cells; conditions: TamR6, 1 nM E2; read-out: IC50, transcriptional inhibition of transiently transfected E2-responsive luciferase reporter
Description: as §2, §3

[6] = biological target: T3, oestrogen receptor-alpha (ERα); assay: Luciferase oestrogen receptor-alpha transcriptional assay in T47D-KBluc cells; assay type: cell-based; design: endogenous in cells; host or cells: T47D-KBluc
Description: ERα-positive T47D-KBluc human BCa cells were grown in phenol red–free RPMI 1640 supplemented with 10% CSS for 5 days. The cells were seeded on a 96-well plate (2 × 10^4 cells/well). […] The test compounds were screened at two concentrations: 12 μM and 30 μM. […] The medium contained 0.1% (v/v) ethanol and 0.1% (v/v) DMSO. Twenty-four hours after treatment, the medium was aspirated and the cells were lysed by adding 50 μl of 1× passive lysis buffer (Promega, Madison, WI, USA). The plates were placed on a shaker at room temperature for 15 minutes and then subjected to two freeze–thaw cycles to help lyse the cells. Next, 20 μl of the lysate from each treatment was transferred onto a white, 96-well, flat-bottomed plate (Corning Life Sciences, Corning, NY, USA), and the luminescent signal was measured after adding 50 μl of the luciferase assay reagent (Promega) on a TECAN M200 PRO microplate reader (Tecan, Männedorf, Switzerland). Differences in growth were normalised against total protein concentration, which was measured by bicinchoninic acid (BCA) assay.

[7] = biological target: T4, biotinylated oestrogen receptor-alpha ligand-binding domain (bERα LBD) (human, UniProt P03372 302-552, biotin on the AviTag); assay: BLI; Octet RED; bERα LBD bound to Super Streptavidin Sensors; 20 mM Tris pH 7.5, 500 mM NaCl, 0.2 mM TCEP, 0.02 mM E2, 5% glycerol, 5% DMSO; PGC-1α peptide in solution as positive control; conditions: both partners purified
T4 construct: Assay buffer held 0.02 mM E2
T4 sequence (looked up): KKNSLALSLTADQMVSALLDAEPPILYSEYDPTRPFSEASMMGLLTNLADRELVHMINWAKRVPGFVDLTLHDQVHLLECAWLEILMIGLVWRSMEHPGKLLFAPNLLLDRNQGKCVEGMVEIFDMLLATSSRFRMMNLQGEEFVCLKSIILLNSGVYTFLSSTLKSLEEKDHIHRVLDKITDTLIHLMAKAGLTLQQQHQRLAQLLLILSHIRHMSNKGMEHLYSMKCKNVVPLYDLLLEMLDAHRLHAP

Molecule: CCOc1cc(Br)cc(/C=N/NC(=O)c2ccc3c(c2)OCCO3)c1O [VPC-16230]
- IC50 ([1]; TR-FRET, read-out: IC50, displacement of PGC-1α peptide from the AF2 site): 2.98 µM
- Shift of dose-response curve with increasing fluorescein-PGC-1α ([1]; fluorescein-PGC-1α 250, 500, 1000 nM, compounds 0.05 to 400 μM): rightward shift
- Binding to ERα LBD by BLI (ERα LBD): direct and reversible interaction
- IC50 (MCF7 cells): 7.8 µM
- IC50 (TamR3 cells; TamR3, 96 h, 1 nM E2, read-out: IC50, growth inhibition): 3.4 µM
- IC50 (TamR6 cells; TamR6, 96 h, 1 nM E2, read-out: IC50, growth inhibition): 6.3 µM
- mRNA levels of pS2, cathepsin D and CDC2 ([2]; in the absence of E2, 12, 6 and 3 μM): did not significantly inhibit; also recorded: did not significantly decrease
- mRNA levels of pS2, cathepsin D and CDC2 ([2]; in the presence of 1 nM E2, 12 and 6 μM): considerably reduced; also recorded: significantly decreased
- Protein levels of pS2, cathepsin D and CDC2 [3]: decreased
- IC50 [4]: 4.7 µM
- IC50 [5]: 4.7 µM
- IC50 ([6]; T47D-KBluc cells, 1 nM E2, 24 h, read-out: IC50, inhibition of ERα transcriptional activity (luciferase reporter)): 5.81 µM and 5.8 µM
- Shift of the IC50 curve in the presence of higher concentrations of E2 ([6]; T47D-KBluc, E2 1, 10, 50, 100 nM): did not show any significant shift
- IC50 ([6]; read-out: IC50, luciferase assay at varied E2, T47D-KBluc, E2 1 nM): 6.1 µM
- IC50 ([6]; read-out: IC50, luciferase assay at varied E2, T47D-KBluc, E2 100 nM): 6.5 µM

Molecule: CC/C(=C(\c1ccccc1)c1ccc(OCCN(C)C)cc1)c1ccccc1 [tamoxifen, reference compound]
- Growth in the presence of 1 μM tamoxifen (TamR3 cells; TamR3, 1 μM in the medium): not affected
- Growth in the presence of 1 μM tamoxifen (TamR6 cells; TamR6, 1 μM in the medium): not affected

Molecule: cold PGC-1α peptide: Cold PGC-1α coactivator peptide (EAEEPSLLKKLLLAPANTQ), known AF2-interacting control [reference compound]
- FRET signal with increasing concentration of cold peptide ([1]; 1.8 to 50 μM): dose-dependent decrease
- Binding to ERα LBD by BLI (ERα LBD): direct and reversible interaction

- binding result [7]: binds
B1: Cold peroxisome proliferator-activated receptor gamma, coactivator 1-alpha (PGC-1α) peptide (peptide)
peptide: EAEEPSLLKKLLLAPANTQ
notes: also called cold PGC-1α peptide; cold PGC-1α; source: synthetic peptide (Elim Biopharmaceuticals)
